According to patent publication EP3940071A1, “5-METHYLFOLATE PRODUCING MICROORGANISM” (Chifeng Pharmaceutical Co., Ltd, priority 2020, dated 2022):

Assay: Stability of folic acid in 0.1 M NaOH (HPLC)
Type: physicochemical
Details: 25 °C, protected from light, 144 hours (6 days)

## Nc1nc2ncc(CNc3ccc(C(=O)N[C@@H](CCC(=O)O)C(=O)O)cc3)nc2c(=O)[nH]1 [folic acid, pteroyl-L-glutamic acid]
  decomposition of folic acid: did not undergo to decomposition
